For the experiment, the target named is T1, interaction between VCAM-1 and VLA-4 (Homo sapiens, UniProt P05556+P13612).
T1 construct: the VLA-4 integrins, are supplied in their natural form as surface molecules on human U937 cells; host or cells: U937 cells carry the endogenous VLA-4; The partner hVCAM-1(1-3)-IgG was secreted by transfected COS cells (ATCC CRL1651) and used as culture supernatant
T1 sequence (P13612 34-1032): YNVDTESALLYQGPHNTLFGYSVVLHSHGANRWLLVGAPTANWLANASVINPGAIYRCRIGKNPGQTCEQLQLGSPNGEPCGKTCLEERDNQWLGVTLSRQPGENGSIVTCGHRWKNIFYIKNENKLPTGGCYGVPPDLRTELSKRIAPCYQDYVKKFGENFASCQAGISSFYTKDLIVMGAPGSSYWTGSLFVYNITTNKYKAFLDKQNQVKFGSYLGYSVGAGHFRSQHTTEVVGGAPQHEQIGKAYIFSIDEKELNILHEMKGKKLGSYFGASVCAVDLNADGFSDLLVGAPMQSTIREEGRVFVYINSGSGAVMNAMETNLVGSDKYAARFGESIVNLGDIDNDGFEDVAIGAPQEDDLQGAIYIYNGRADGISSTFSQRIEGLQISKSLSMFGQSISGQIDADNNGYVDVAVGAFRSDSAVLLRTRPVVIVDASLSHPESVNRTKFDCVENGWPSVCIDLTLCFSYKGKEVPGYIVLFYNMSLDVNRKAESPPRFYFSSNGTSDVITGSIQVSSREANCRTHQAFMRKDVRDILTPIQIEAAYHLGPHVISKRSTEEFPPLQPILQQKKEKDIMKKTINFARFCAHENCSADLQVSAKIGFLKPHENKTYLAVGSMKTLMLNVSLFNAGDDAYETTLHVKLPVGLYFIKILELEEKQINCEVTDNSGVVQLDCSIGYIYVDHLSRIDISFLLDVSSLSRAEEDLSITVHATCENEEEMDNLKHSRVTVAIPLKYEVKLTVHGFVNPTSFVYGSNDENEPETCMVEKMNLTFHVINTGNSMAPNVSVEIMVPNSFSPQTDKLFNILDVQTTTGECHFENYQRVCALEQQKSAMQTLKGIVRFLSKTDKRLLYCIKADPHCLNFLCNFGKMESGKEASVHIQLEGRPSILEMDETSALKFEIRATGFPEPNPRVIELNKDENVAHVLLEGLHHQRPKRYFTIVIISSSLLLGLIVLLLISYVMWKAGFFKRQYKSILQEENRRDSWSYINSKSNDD
T1 sequence (P05556 21-798): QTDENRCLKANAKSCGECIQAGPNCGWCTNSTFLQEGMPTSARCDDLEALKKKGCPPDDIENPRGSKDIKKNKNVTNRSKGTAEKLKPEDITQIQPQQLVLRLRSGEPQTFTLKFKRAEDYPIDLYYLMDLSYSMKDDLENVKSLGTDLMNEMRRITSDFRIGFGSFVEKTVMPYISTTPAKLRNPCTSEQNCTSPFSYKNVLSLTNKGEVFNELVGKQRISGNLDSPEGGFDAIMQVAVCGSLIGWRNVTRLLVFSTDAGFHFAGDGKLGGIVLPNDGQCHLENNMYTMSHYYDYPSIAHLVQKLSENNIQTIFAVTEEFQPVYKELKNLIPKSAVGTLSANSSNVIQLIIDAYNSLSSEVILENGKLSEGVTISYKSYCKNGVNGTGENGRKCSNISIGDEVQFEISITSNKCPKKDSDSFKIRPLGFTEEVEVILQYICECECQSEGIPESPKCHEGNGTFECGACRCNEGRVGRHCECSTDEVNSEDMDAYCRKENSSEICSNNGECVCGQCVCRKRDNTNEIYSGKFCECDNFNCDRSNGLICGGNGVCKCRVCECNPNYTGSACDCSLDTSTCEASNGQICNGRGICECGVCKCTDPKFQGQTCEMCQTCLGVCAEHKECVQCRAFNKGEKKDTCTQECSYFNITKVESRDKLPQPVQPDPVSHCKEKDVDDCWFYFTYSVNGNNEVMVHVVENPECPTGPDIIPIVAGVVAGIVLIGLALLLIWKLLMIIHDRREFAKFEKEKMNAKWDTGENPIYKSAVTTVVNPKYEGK
As to the kind of experiment: U937/VCAM-1 cell adhesion test: adhesion of U937 cells to hVCAM-1(1-3)-IgG. It is filed as cell-based. The conditions noted are these: human U937 cells (ATCC CRL 1593) adhering to hVCAM-1(1-3)-IgG; concentration giving 50% inhibition of adhesion. The source says: The test method used for the activity of the compounds of the formula I on the interaction between VCAM-1 and VLA-4 is an assay which is specific for this interaction. The cellular binding components, i.e. the VLA-4 integrins, are supplied in their natural form as surface molecules on human U937 cells (ATCC CRL 1593), which belong to the leukocytes group. The specific binding components used are genetically engineered recombinant soluble fusion proteins, consisting of the extracytoplasmatic domain of human VCAM-1 and the constant region of a human immunoglobulin of the subclass IgGl.
Assay for the Measurement of the Adhesion of U937 Cells (ATCC CRL 1593) to hVCAM-1(1-3)-IgG
1. Preparation of Human VCAM-1(1-3)-IgG and Human CD4-IgG
A genetic construct for the expression of the extracellular domain of human VCAM-1, associated with the genetic sequence of the heavy chain of human immunoglobulin IgGI (hinge, CH2 and CH3 regions), from Dr. Brian Seed, Massachusetts General Hospital, Boston, USA was employed (cf. Damle and Aruffo, Proc. Natl. Acad. Sci. USA 1991, 88, 6403-6407). The soluble fusion protein hVCAM-1(1-3)-IgG contained the three amino-terminal extracellular immunoglobulin-like domains of human VCAM-1 (Damle and Aruffo, Proc. Natl. Acad. Sci. USA 1991, 88, 6403-6407). CD4-IgG (Zettlmeissl et al., DNA and Cell Biology 1990, 9, 347) served as a fusion protein for negative controls. The recombinant proteins were expressed as soluble proteins after DEAE/dextran-mediated DNA transfection in COS cells (ATCC CRL1651) according to standard procedures (Ausubel et al., Current Protocols in Molecular Biology, John Wiley & Sons, Inc., 1994).
2. Assay for the Measurement of the Adhesion of U937 Cells to hVCAM-1(1-3)-IgG
2.1 96-well microtiter test plates (Nunc Maxisorb) were incubated at room temperature for 1 hour with 100 μl/well of a goat-anti-human IgG antibody solution (10 μg/ml in 50 mM tris, pH 9.5). After removal of the antibody solution, washing was carried out once with PBS.
2.2 150 μl/well of a blocking buffer (1% BSA in PBS) was incubated on the plates at room temperature for 0.5 hour. After removal of the blocking buffer, washing was carried out once with PBS.
2.3 100 μl per well of a cell culture supernatant of transfected COS cells were incubated on the plates at room temperature for 1.5 hours. The COS cells were transfected with a plasmid which codes for the three N-terminal immunoglobulin-like domains of VCAM-1, coupled to the Fc part of human IgG, (hVCAM-1(1-3)-IgG). The content of hVCAM-1(1-3)-IgG was about 0.5-1 μg/ml. After removal of the culture supernatant, washing was carried out once with PBS.
2.4 The plates were incubated at room temperature for 20 minutes with 100 μl/well of Fc receptor blocking buffer (1 mg/ml of γ-globulin, 100 mM NaCl, 100 μM MgCl2, 100 μM MnCl2, 100 μM CaCl2, 1 mg/ml of BSA in 50 mM HEPES, pH 7.5). After removal of the Fc receptor blocking buffer, washing was carried out once with PBS.
2.5 20 μl of binding buffer (100 mM NaCl, 100 μM MgCl2, 100 μM MnCl2, 100 μM CaCl2, 1 mg/ml of BSA in 50 mM HEPES, pH 7.5) were initially introduced, and the substances to be tested were added in 10 μl of binding buffer and incubated for 20 minutes. The controls used were antibodies against VCAM-1 (BBT, No. BBA6) and against VLA-4 (Immunotech, No. 0764).
2.6 U937 cells were incubated in Fc receptor blocking buffer for 20 minutes and then added by pipette in a concentration of 1×10^6/ml and in an amount of 100 μl per well ([…]).
2.7 The plates were slowly immersed at an angle of 45° in stop buffer (100 mM NaCl, 100 μM MgCl2, 100 μM MnCl2, 100 μM CaCl2 in 25 mM tris, pH 7.5) and shaken off. The process was repeated.
2.8 50 μl/well of a dye solution (16.7 μg/ml of Hoechst Dye 33258, 4% formaldehyde, 0.5% Triton X-100 in PBS) were then incubated on the plates for 15 minutes. […]
What is called IC50 is the concentration needed to halve the response being measured. Molecule `CC(C)C[C@@H](C(=O)N[C@H](C)CC(=O)O)N1C(=O)N(Cc2ccc(/C=C/c3ccccc3)cc2)C(C)(C)C1=O` [Example 1, (R)-3-((S)-2-(4,4-Dimethyl-3-(4-styrylbenzyl)-2,5-dioxoimidazolidin-1-yl)-2-(2-methylpropyl)acetylamino)-3-methylpropionic Acid] came in with an IC50 of 3.2 µM. `CC(C)C[C@@H](C(=O)N[C@H](C)CC(=O)O)N1C(=O)N(Cc2ccc(CCc3ccccc3)cc2)C(C)(C)C1=O` [Example 2, (R)-3-((S)-2-(4,4-Dimethyl-3-(4-(2-phenylethyl)benzyl)-2,5-dioxoimidazolidin-1-yl)-2-(2-methylpropyl)acetylamino)-3-methylpropionic Acid] gave an IC50 of 118 µM. Against the preceding molecule, the IC50 is about 37-fold higher. For the molecule `CC(C)C[C@@H](C(=O)N[C@H](CC(=O)O)c1ccccc1)N1C(=O)N(Cc2ccc(/C=C/c3ccccc3)cc2)C(C)(C)C1=O` [Example 3, (R)-3-((S)-2-(4,4-Dimethyl-3-(4-styrylbenzyl)-2,5-dioxoimidazolidin-1-yl)-2-(2-methylpropyl)acetylamino)-3-phenylpropionic Acid], the IC50 turned out to be 0.56 µM. Take `CC(C)C[C@@H](C(=O)NCCC(=O)O)N1C(=O)N(Cc2ccc(/C=C/c3ccccc3)cc2)C(C)(C)C1=O` [Example 4, 3-((S)-2-(4,4-Dimethyl-3-(4-styrylbenzyl)-2,5-dioxo-imidazolidin-1-yl)-2-(2-methylpropyl)acetylamino)propionic Acid]: the midpoint of inhibition, the IC50, lay at 27.8 µM. This IC50 lies about 50-fold higher than the previous one. For the molecule `CC(C)C[C@@H](C(=O)N[C@H](CC(=O)O)c1ccc2c(c1)OCO2)N1C(=O)N(Cc2ccc(/C=C/c3ccccc3)cc2)C(C)(C)C1=O` [Example 5, (R)-3-((S)-2-(4,4-Dimethyl-3-(4-styrylbenzyl)-2,5-dioxo-imidazolidin-1-yl)-2-(2-methylpropyl)acetylamino)-3-(3,4-methylenedioxyphenyl)propionic Acid], half-maximal inhibition (IC50) was put at 0.15 µM. The value for `CC(C)C[C@@H](C(=O)N[C@H](CC(=O)O)c1ccc2c(c1)OCO2)N1C(=O)N(Cc2ccc(Oc3ccccc3)cc2)C(C)(C)C1=O` [Example 6, (R)-3-((S)-2-(4,4-Dimethyl-2,5-dioxo-3-(4-phenyloxy-20 benzyl)imidazolidin-1-yl)-2-(2-methylpropyl)acetylamino)-3-(3,4-methylenedioxyphenyl)propionic Acid] was 16.4 µM; that for `CC(C)C[C@@H](C(=O)N[C@H](C)CC(=O)O)N1C(=O)N(Cc2ccc(OCc3ccccc3)cc2)C(C)(C)C1=O` [Example 7, (R)-3-((S)-2-(3-(4-Benzyloxybenzyl)-4,4-dimethyl-2,5-dioxoimidazolidin-1-yl)-2-(2-methylpropyl)acetylamino)-3-methylpropionic Acid] was 2.9 µM; that for `Cc1ccccc1/C=C/c1ccc(CN2C(=O)N([C@@H](CC(C)C)C(=O)N[C@H](C)CC(=O)O)C(=O)C2(C)C)cc1` [Example 8, (R)-3-((S)-2-(4,4-Dimethyl-3-(4-(2-(2-methylphenyl)-vinyl)benzyl)-2,5-dioxoimidazolidin-1-yl)-2-(2-methyl-propyl)acetylamino)-3-methylpropionic Acid] was 2 µM. As to `Cc1ccccc1/C=C/c1ccc(CN2C(=O)N([C@@H](CC(C)C)C(=O)N[C@H](CC(=O)O)c3ccccc3)C(=O)C2(C)C)cc1` [Example 9, (R)-3-((S)-2-(4,4-Dimethyl-3-(4-(2-(2-methylphenyl)-vinyl)benzyl)-2,5-dioxoimidazolidin-1-yl)-2-(2-methyl-propyl)acetylamino)-3-phenylpropionic Acid], the midpoint of inhibition, the IC50, lay at 0.18 µM.

In the case of `COc1cccc(C(CC(=O)O)NC(=O)[C@H](CC(C)C)N2C(=O)N(Cc3ccc(/C=C/c4ccccc4)cc3)C(C)(C)C2=O)c1` (stereo partly drawn) [Example 10, 3-((S)-2-(4,4-Dimethyl-3-(4-styrylbenzyl)-2,5-dioxo-imidazolidin-1-yl)-2-(2-methylpropyl)acetylamino)-3-(3-methoxyphenyl)propionic Acid], the midpoint of inhibition, the IC50, lay at 24.5 µM. In turn, `CC(C)C[C@@H](C(=O)NC(CC(=O)O)c1ccc(F)cc1)N1C(=O)N(Cc2ccc(/C=C/c3ccccc3)cc2)C(C)(C)C1=O` (stereo partly drawn) [Example 11, 3-((S)-2-(4,4-Dimethyl-3-(4-styrylbenzyl)-2,5-dioxo-imidazolidin-1-yl)-2-(2-methylpropyl)acetylamino)-3-(4-fluorophenyl)propionic Acid] had an IC50 of 18 µM. The IC50 values of the last two molecules are within 1.5-fold of each other. As to `COc1ccc(C(CC(=O)O)NC(=O)[C@H](CC(C)C)N2C(=O)N(Cc3ccc(/C=C/c4ccccc4)cc3)C(C)(C)C2=O)cc1F` (stereo partly drawn) [Example 12, 3-((S)-2-(4,4-Dimethyl-3-(4-styrylbenzyl)-2,5-dioxo-imidazolidin-1-yl)-2-(2-methylpropyl)acetylamino)-3-(3-fluoro-4-methoxyphenyl)propionic Acid], the IC50 came to 17.5 µM. The value for `Cc1cccc(C(CC(=O)O)NC(=O)[C@H](CC(C)C)N2C(=O)N(Cc3ccc(/C=C/c4ccccc4)cc3)C(C)(C)C2=O)c1` (stereo partly drawn) [Example 13, 3-((S)-2-(4,4-Dimethyl-3-(4-styrylbenzyl)-2,5-dioxo-imidazolidin-1-yl)-2-(2-methylpropyl)acetylamino)-3-(3-methylphenyl)propionic Acid] was 64.6 µM; that for `CC(C)C[C@@H](C(=O)NC(CC(=O)O)c1ccccc1F)N1C(=O)N(Cc2ccc(/C=C/c3ccccc3)cc2)C(C)(C)C1=O` (stereo partly drawn) [Example 14, 3-((S)-2-(4,4-Dimethyl-3-(4-styrylbenzyl)-2,5-dioxo-imidazolidin-1-yl)-2-(2-methylpropyl)acetylamino)-3-(2-fluorophenyl)propionic Acid] was 15.3 µM.

`CC(C)C[C@@H](C(=O)NC(CC(=O)O)c1cccc(F)c1)N1C(=O)N(Cc2ccc(/C=C/c3ccccc3)cc2)C(C)(C)C1=O` (stereo partly drawn) [Example 15, 3-((S)-2-(4,4-Dimethyl-3-(4-styrylbenzyl)-2,5-dioxo-imidazolidin-1-yl)-2-(2-methylpropyl)acetylamino)-3-(3-fluorophenyl)propionic acid]: 61.5 µM corresponded to half-maximal inhibition (IC50). With `CCCCc1ccc(C(CC(=O)O)NC(=O)[C@H](CC(C)C)N2C(=O)N(Cc3ccc(/C=C/c4ccccc4)cc3)C(C)(C)C2=O)cc1` (stereo partly drawn) [Example 16, 3-(4-Butylphenyl)-3-((S)-2-(4,4-dimethyl-3-(4-styrylbenzyl)-2,5-dioxoimidazolidin-1-yl)-2-(2-methyl-propyl)acetylamino)propionic Acid], the midpoint of inhibition, the IC50, lay at 34.9 µM.

`CC(C)C[C@@H](C(=O)NC(CC(=O)O)c1ccc(Cl)cc1)N1C(=O)N(Cc2ccc(/C=C/c3ccccc3)cc2)C(C)(C)C1=O` (stereo partly drawn) [Example 17, 3-(4-Chlorophenyl)-3-((S)-2-(4,4-dimethyl-3-(4-styrylbenzyl)-2,5-dioxoimidazolidin-1-yl)-2-(2-methyl-propyl)acetylamino)propionic Acid] displayed an IC50 of 36.6 µM. The IC50 values of the last two molecules are within 1.5-fold of each other.

Source of the values: patent US6667334B1, “Imidazolidine derivatives, the production thereof, their use and pharmaceutical preparations containing the same” (Aventis Pharma Deutschland GmbH, priority 1998, dated 2003).
